Assay results: ChEMBL document CHEMBL4602712, “Synthesis and Evaluation of Noncovalent Naphthalene-Based KEAP1-NRF2 Inhibitors” (ACS Med Chem Lett, 2020)

Target: Kelch-like ECH-associated protein 1 (Homo sapiens, UniProt Q14145)
Experiment: Inhibition of FITC-9mer Nrf2 peptide binding to recombinant human KEAP1 Kelch domain (321 to 609 residues) expressed in Escherichia coli BL21 (DE3) by fluorescence polarization assay

Chain of Kelch-like ECH-associated protein 1 (Q14145 whole entry, the tested form may be a part): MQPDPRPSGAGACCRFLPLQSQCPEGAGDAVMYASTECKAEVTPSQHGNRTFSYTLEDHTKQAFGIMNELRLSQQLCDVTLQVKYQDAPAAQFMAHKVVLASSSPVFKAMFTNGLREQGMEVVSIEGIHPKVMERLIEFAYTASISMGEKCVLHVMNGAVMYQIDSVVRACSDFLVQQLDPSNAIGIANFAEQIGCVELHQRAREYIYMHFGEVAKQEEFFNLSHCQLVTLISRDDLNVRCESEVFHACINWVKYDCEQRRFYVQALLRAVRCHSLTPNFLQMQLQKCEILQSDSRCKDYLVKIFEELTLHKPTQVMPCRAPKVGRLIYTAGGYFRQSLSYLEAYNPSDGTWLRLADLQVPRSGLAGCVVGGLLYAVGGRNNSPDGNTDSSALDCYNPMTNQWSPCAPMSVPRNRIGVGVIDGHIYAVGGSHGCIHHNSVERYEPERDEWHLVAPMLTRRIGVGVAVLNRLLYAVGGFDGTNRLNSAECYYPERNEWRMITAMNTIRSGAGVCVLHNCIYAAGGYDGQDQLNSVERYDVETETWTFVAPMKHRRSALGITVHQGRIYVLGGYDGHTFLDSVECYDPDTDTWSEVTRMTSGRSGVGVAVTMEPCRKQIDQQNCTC

IC50 [µM] | SMILES
> 25 | COc1ccc(S(=O)(=O)Cc2ccc(CS(=O)(=O)c3ccc(OC)cc3)c3ccccc23)cc1
> 25 | COc1ccc(S(=O)(=O)Nc2ccc(CCC(=O)O)c3ccccc23)cc1
> 25 | COc1ccc(S(=O)(=O)Nc2ccc(/C=C/C(=O)O)c3ccccc23)cc1
